Assays:
[1] = UV absorption properties (λmax, molar extinction coefficient ε, efficiency E 1%, 1 cm); type: physicochemical; conditions: for λmax / E (1%, 1 cm) / ε: Table 13B; for λmax: miscellaneous compounds; for E (1%, 1 cm) / ε / ε (molar extinction coefficient): values in order of the λmax values; for ε: in M-1 cm-1
[2] = Critical wavelength (λcrit), approximate in-house measurement; type: physicochemical; conditions: for λcrit: Table 13B
From the text: As the precise test for critical wavelength was unable to be replicated exactly by the inventors due to the need for specialist equipment and a specific calibration of the spectrophotometer, these values are only approximate to a degree. […] This represents a highly useful result and so, compounds based around this benzoyl substitution pattern shown, are especially preferred.

Photostability = type: physicochemical; conditions: Table 13B
[3] = literature value, standardised test; cited from earlier work

Compound | λmax [1] | E (1%, 1 cm) [1] | ε [1] | λcrit [2] | Photostability (%) (Photostability) | UV λmax [1] | melting point | also measured
CC1(C)CCN(C(C)(C)C)C=C1C(=O)/C=C/c1ccc(C(=O)C2=CN(C(C)(C)C)CCC2(C)C)cc1 | 360 nm | 564 | 27646 | 385 nm | 77% |  |  | 
CCCCC(CC)COC(=O)CCC(=O)C1=CN(c2ccc(N3C=C(C(=O)CCC(=O)OCC(CC)CCCC)C(C)(C)CC3)cc2)CCC1(C)C (stereo not drawn) | 359 nm | 628 | 45301 | 379 nm | 52% |  |  | 
CC1(C)CCN(c2ccc(N3C=C(C(=O)CCC(F)(F)F)C(C)(C)CC3)cc2)C=C1C(=O)CCC(F)(F)F | 358 nm | 1090 | 59296 | 379 nm | 54% |  |  | 
Cc1ccc(NC(=O)C2=CN(C(C)(C)CC(C)(C)C)CCC2(C)C)cc1NC(=O)C1=CN(C(C)(C)CC(C)(C)C)CCC1(C)C | 311 nm | 990 | 61479 | 328 nm | 55% |  |  | 
CCCCC(CC)CN(c1ccc(C(=O)C2=CN(C(C)(C)C)CCC2(C)C)cc1)c1ccc(C(=O)C2=CN(C(C)(C)C)CCC2(C)C)cc1.Cl (stereo not drawn) | 316 nm | 653 | 45910 | 370 nm | 39% |  |  | 
COc1ccc(C(=O)CC(=O)c2ccc(C(C)(C)C)cc2)cc1 [Avobenzone, reference compound] |  |  |  |  |  |  |  | critical wavelength ([2]; values only approximate): 378 nm; critical wavelength, reported [3]: 380 nm
CC(C)(C)Oc1ccc(C(=O)C2=CN(C(C)(C)C)CCC2(C)C)cc1 [Compound 158, (4-(tert-butoxy)phenyl)(1-(tert-butyl)-4,4-dimethyl-1,4,5,6-tetrahydropyridin-3-yl)methanone] |  |  |  |  |  | 317 nm | 98 to 101 °C | ε (molar extinction coefficient) [1]: 32556 M⁻¹ cm⁻¹
CC1(C)CCN(C(C)(C)C)C=C1C(=O)c1ccc(C(=O)C2=CN(C(C)(C)C)CCC2(C)C)cc1 [Compound 159, 1,4-phenylenebis((1-(tert-butyl)-4,4-dimethyl-1,4,5,6-tetrahydropyridin-3-yl)methanone)] |  |  |  |  |  | 317 nm | 243 °C (dec.) | ε (molar extinction coefficient) [1]: 33982 M⁻¹ cm⁻¹
CC1(C)CCN(C(C)(C)C)C=C1C(=O)c1ccc(C(=O)O)cc1 [Compound 160, 4-(1-(tert-butyl)-4,4-dimethyl-1,4,5,6-tetrahydropyridine-3-carbonyl)benzoic acid] |  |  |  |  |  | 317 nm | 80 to 83 °C | ε (molar extinction coefficient) [1]: 17300 M⁻¹ cm⁻¹
CC1(C)CCN(c2ccc(C(C)(C)C)cc2)C=C1C(OC(=O)C1c2ccccc2-c2ccccc21)=C1c2ccccc2-c2ccccc21 [Compound 206, (1-(4-(tert-butyl)phenyl)-4,4-dimethyl-1,4,5,6-tetrahydropyridin-3-yl)(9H-fluoren-9-ylidene)methyl 9H-fluorene-9-carboxylate] |  |  |  |  |  | 407 nm | 145 °C | 

Continued, in another order:

λmax [1] | E (1%, 1 cm) [1] | ε [1] | λcrit [2] | Photostability (%) (Photostability) | UV λmax [1] | melting point | Compound | also measured
316 nm | 624 | 41598 | 369 nm |  |  |  | CCCCC(CC)CN(c1ccc(C(=O)C2=CN(C(C)(C)C)CCC2(C)C)cc1)c1ccc(C(=O)C2=CN(C(C)(C)C)CCC2(C)C)cc1 (stereo not drawn) | shoulder in the λmax column ([1]; Tables 5, 10, 13B): ~340 nm; Photostability (%) + Octo (Photostability; with octocrylene (+ Octo)): 90%
378 nm | 460 | 30963 | 388 nm | 2% |  |  | CCCCC(CC)COC(=O)c1cc(/C=C/C(=O)C2=CN(C(C)(C)C)CCC2(C)C)ccc1/C=C/C(=O)C1=CN(C(C)(C)C)CCC1(C)C (stereo not drawn) | 
309 nm | 1137 | 28554 | 327 nm | 60% |  |  | CC(C)CN1C=C(C(=O)C(C)(C)C)C(C)(C)CC1 | 
 |  |  |  |  | 333 nm | 162 to 163 °C | CN(C)c1ccc(C(=O)C2=CN(C(C)(C)C)CCC2(C)C)cc1 [Compound 157, (1-(tert-butyl)-4,4-dimethyl-1,4,5,6-tetrahydropyridine-3-yl)(4-(dimethylamino)phenyl)methanone] | ε (molar extinction coefficient) [1]: 24966 M⁻¹ cm⁻¹

From patent publication US10519111B2, “UV absorbing compounds, compositions comprising same and uses thereof” (CORAL SUNSCREEN PTY LTD, priority 2013, dated 2019)
